Reference: PubChem BioAssay (NCI)
Several values for one entry are separate records, joined by “and”; a condition that tells them apart may be missing. Equal entries are not always repeated.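 96-well plates; 48 h exposure; 5 concentrations. Endpoints by linear interpolation between flanking doses. Not reached: highest tested concentration assigned. The concentration for 50% growth inhibition is given as GI50. TGI: concentration producing complete growth inhibition.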

Assays:
Assay in all cases: NCI anticancer screen, dose series, 48 h
[1] = system: HS 578T breast
[2] = system: DU-145 prostate
[3] = system: HT29 colon
[4] = system: OVCAR-4 ovarian
[5] = system: HL-60(TB) leukemia
[6] = system: CAKI-1 renal
[7] = system: ACHN renal
[8] = system: MDA-MB-435
[9] = system: SN12C renal
[10] = system: SF-539 CNS

Compound | GI50 [1] [µM] | TGI [1] | GI50 [2] | TGI [2] | GI50 [3] | TGI [3] | GI50 [4] [µM] | TGI [4] [µM] | GI50 [5] [µM] | TGI [5] | GI50 [6] | TGI [6] | GI50 [7] | TGI [7] | GI50 [8] [µM] | TGI [8] | GI50 [9] | TGI [9] | GI50 [10] | TGI [10]
CC(=O)[C@@]12O[C@@H]1CC1C3CCC4=CC(O)CCC4(C)C3CCC12C (stereo partly specified) | 27.9 | 90.2 µM | 15 µM | 31.8 µM | 47.9 µM | > 100 µM | 23.2 | > 100 | > 100 | > 100 µM | > 100 µM | > 100 µM | 44.9 µM | > 100 µM | > 100 | > 100 µM | 81 µM | > 100 µM | 39 µM | > 100 µM
Cc1cc2c(cc1Cl)SC(N(N(C)C)S(=O)(=O)c1ccc(Cl)cc1)=NS2(=O)=O | 23.4 | 67.3 µM | 27.8 µM | 99.4 µM | 27.1 µM | 99.2 µM | 23.4 | 96.4 | 35.2 | 89.8 µM | 30.5 µM | 66.6 µM | 32.1 µM | > 100 µM | 33.2 | > 100 µM | 24.3 µM | 72 µM | 18.2 µM | 45.8 µM
CN(C)CCSC1=Nc2ccc(Cl)cc2C(c2ccccc2Cl)=NC1 |  | 35.7 µM and > 100 µM | 14.4 µM and 60.2 µM | 30.5 µM and > 100 µM | 15 µM and 40.6 µM | 35.4 µM and > 100 µM |  | > 100 |  | 66.5 µM and 80.4 µM | 15.1 µM and 79.5 µM | 31.5 µM and > 100 µM | 14 µM and > 100 µM | 26.9 µM and > 100 µM |  | 28.4 µM and 38.7 µM | 13.5 µM and > 100 µM | 26.5 µM and > 100 µM | 17.3 µM and > 100 µM | 31.6 µM and > 100 µM
O=S(=O)(CCn1c(Sc2ccccc2)c(Sc2ccccc2)c2ccccc21)c1ccccc1 |  | > 100 µM |  | > 100 µM |  | > 100 µM |  | > 100 |  | > 100 µM |  | > 100 µM |  | > 100 µM |  | > 100 µM |  | > 100 µM |  | > 100 µM
CCCCCCCCC/C=C1\CCC(CN2CCOCC2)C1=O (stereo unspecified) |  | 5.47 µM |  | 17.5 µM |  | 8.7 µM |  | 12 |  | 4.38 µM |  | 6.38 µM |  | 16.5 µM |  | 6.5 µM |  | 13 µM |  | 3.74 µM
CCN(CC)c1ccc(-c2cc(-c3cc(OC)c(OC)c(OC)c3)nc(N3CCOCC3)c2C#N)cc1 | 0.507 | 12.2 µM | 2.18 µM | > 100 µM | 0.532 µM | 8.87 µM | 7.33 | > 100 | 0.463 | 6.08 µM | 0.366 µM | > 53.2 µM | 1.22 µM | > 100 µM | 1.32 | 13.7 µM | 0.805 µM | > 100 µM | 1.36 µM | 12.7 µM
COc1ncnc(NS(=O)(=O)c2ccc(N=C3C(=O)N(CN4CCN(c5c(F)cc6c(=O)c(C(=O)O)cn(C7CC7)c6c5OC)CC4C)c4ccc(Cl)cc43)cc2)c1OC (stereo unspecified) | 23.1 | > 50 µM | 21 µM | > 50 µM | 18.4 µM | > 50 µM | 37.7 | > 50 | 14 | > 50 µM | 6.44 µM | 26.1 µM | 7.17 µM | 20.6 µM | 9.34 | 19 µM | 16.9 µM | > 50 µM | 16.8 µM | > 50 µM
